Measurements as given in article PMC7997032, “Organic synthesis and anti-influenza A virus activity of cyclobakuchiols A, B, C, and D” (PLoS ONE, 2021).
Where “and” joins values, the source holds several entries; their conditions need not be identical. Equal values may be shown once.

System: MDCK cells
Assay: MTT assay (cytotoxicity against MDCK cells)
Assay type: cell-based, canine
Settings: MDCK cells; for MTT, DMSO as 100 (DMSOを 100として), ave / MTT 72h AVE (DMSO = 100): 72h; for MTT, DMSO as 100 (DMSOを 100として), ave: mean of 5 wells (200409 #1 and #3); for MTT 72h AVE (DMSO = 100): summary AVE; for MTT 24h, AVE (DMSO as 100): 0.78 uM, relative to DMSO = 100; for MTT 24h, AVE (DMSO as 100) / MTT 24h, 570-650nm, DMSO as 100, ave: mean of 5 wells from 3 experiments; for MTT 24h, 570-650nm, DMSO as 100, single replicate: individual wells (200331; 200403 #2 1,2; 200403 #3 1,2); for 570-650nm (MTT absorbance, single wells) / 570-650nm ave (mean MTT absorbance of 5 wells) / MTT absorbance with DMSO as 100 (DMSOを 100として), single wells: MTT 72h; for 570-650nm (MTT absorbance, single wells): experiments #1-#3, duplicate wells; for MTT absorbance with DMSO as 100 (DMSOを 100として), single wells: relative to mean of DMSO
Protocol: 1–5 (0.8–100 μM) were prepared in DMSO (100 μM, 1%; 50 μM, 0.5%; 25 μM, 0.25%; 12.5 μM, 0.125%; 6.3 μM, 0.063%; 3.1 μM, 0.031%; 1.6 μM, 0.016%; 0.8 μM, 0.008%) and mixed with infection medium (DMEM supplemented with 1% bovine serum albumin (BSA; Wako), P/S and 4 mM L-glutamine). The resulting mixture was added to the cells and incubated for 24 or 72 h at 37°C in the presence of 5% CO2. After incubation, cell viability was determined using an MTT cell count kit (Nacalai Tesque) according to the manufacturer’s instructions, as previously described.

[1] = 3.13uM (3.125uM in summary block)

For C=C[C@@](C)(/C=C/c1ccc(O)cc1)CCC=C(C)C [(+)-(S)-baku.], the “MTT, DMSO as 100 (DMSOを 100として), ave” value (0.78uM) was 101.639, the “MTT, DMSO as 100 (DMSOを 100として), ave” value (1.56uM) was 110.926 and the “MTT 72h AVE (DMSO = 100)” value (3.13 (uM)) was 132.176. The “MTT 72h AVE (DMSO = 100)” value (6.25 (uM)) was 135.974, the “MTT 72h AVE (DMSO = 100)” value (12.5 (uM)) was 116.119 and the “MTT 72h AVE (DMSO = 100)” value (25 (uM)) was 164.273. The “MTT 72h AVE (DMSO = 100)” value (50 (uM)) was 107.359, the “MTT 72h AVE (DMSO = 100)” value (100 (uM)) was 28.7987 and the “MTT 24h, AVE (DMSO as 100)” value was 106.986. For the same compound, the “MTT 24h, 570-650nm, DMSO as 100, single replicate” value (shortened to “MTT 24h … single replicate”) (1.56uM) was 103.696 and 92.7462 and 106.461 and 104.983 and 94.4526, the “MTT 24h, 570-650nm, DMSO as 100, ave” value (1.56uM) was 100.468 and the “MTT 24h … single replicate” value (3.125uM) was 107.294 and 97.5488 and 102.772 and 101.94 and 95.2685. The “MTT 24h, 570-650nm, DMSO as 100, ave” value (3.125uM) was 100.964, the “MTT 24h … single replicate” value (6.25uM) was 108.582 and 98.5976 and 113.546 and 113.49 and 101.426 and the “MTT 24h, 570-650nm, DMSO as 100, ave” value (6.25uM) was 107.128. For the same compound, the “MTT 24h … single replicate” value (12.5uM) was 102.57 and 93.2171 and 103.913 and 112.439 and 104.302, the “MTT 24h, 570-650nm, DMSO as 100, ave” value (12.5uM) was 103.288 and the “MTT 24h … single replicate” value (25uM) was 108.875 and 109.835 and 96.176 and 115.944 and 106.769. For the same compound, the “MTT 24h, 570-650nm, DMSO as 100, ave” value (25uM) was 107.52, the “MTT 24h … single replicate” value (50uM) was 119.708 and 122.77 and 91.784 and 117.912 and 113.767 and the “MTT 24h, 570-650nm, DMSO as 100, ave” value (50uM) was 113.188. The “MTT 24h … single replicate” value (100uM) was 79.067 and 84.0157 and 140.292 and 89.6781 and 39.1391, the “MTT 24h, 570-650nm, DMSO as 100, ave” value (100uM) was 86.4384 and the “570-650nm (MTT absorbance, single wells)” value (0.78uM) was 0.9216 and 1.0625 and 0.5565 and 0.8595 and 0.8044 and 0.7519. For the same compound, the “570-650nm (MTT absorbance, single wells)” value (1.56uM) was 0.9826 and 0.8065 and 0.7089 and 0.7456 and 0.6067 and 0.9846, the “570-650nm ave (mean MTT absorbance of 5 wells)” value (from here on “570-650nm ave”) (3.125uM) was 0.8903 and the “MTT absorbance with DMSO as 100 (DMSOを 100として), single wells” value (“MTT absorbance with DMSO” below) (3.125uM) was 116.345 and 146.749 and 122.432 and 152.375 and 122.981. For the same compound, the “570-650nm (MTT absorbance, single wells)” value [1] was 0.8284 and 0.7837 and 0.9885 and 0.8247 and 1.0264 and 0.8069, the “570-650nm ave” value (6.25uM) was 0.9301 and the “570-650nm (MTT absorbance, single wells)” value (6.25uM) was 0.9089 and 0.9123 and 0.7679 and 0.9049 and 1.1563 and 0.9272. For the same compound, the “MTT absorbance with DMSO” value (6.25uM) was 133.377 and 112.266 and 132.295 and 169.05 and 132.88, the “570-650nm ave” value (12.5uM) was 0.9243 and the “570-650nm ave” value (25uM) was 1.2355. The “570-650nm (MTT absorbance, single wells)” value (25uM) was 1.2252 and 1.1953 and 1.2444 and 1.2282 and 1.1748 and 1.3049, the “MTT absorbance with DMSO” value (25uM) was 165.457 and 163.303 and 156.203 and 173.501 and 162.904 and the “570-650nm ave” value (50uM) was 0.9798. For the same compound, the “570-650nm ave” value (100uM) was 0.2711, the “570-650nm (MTT absorbance, single wells)” value (100uM) was 0.1982 and 0.2036 and 0.3213 and 0.2978 and 0.3355 and 0.2029 and the “MTT absorbance with DMSO” value (100uM) was 34.1264 and 31.6304 and 35.6346 and 21.5507 and 21.0515.
C=C[C@]1(C)CC[C@H](C(=C)C)[C@@H](c2ccc(O)cc2)C1 [Cyclo. A] was tested, and the “MTT, DMSO as 100 (DMSOを 100として), ave” value (0.78uM) was 105.716, the “MTT, DMSO as 100 (DMSOを 100として), ave” value (1.56uM) was 110.791 and the “MTT, DMSO as 100 (DMSOを 100として), ave” value (3.125uM) was 135.974. For the same compound, the “MTT 72h AVE (DMSO = 100)” value (6.25 (uM)) was 127.594, the “MTT 72h AVE (DMSO = 100)” value (12.5 (uM)) was 109.498 and the “MTT 72h AVE (DMSO = 100)” value (25 (uM)) was 139.303. The “MTT 72h AVE (DMSO = 100)” value (50 (uM)) was 115.79, the “MTT 72h AVE (DMSO = 100)” value (100 (uM)) was 76.9772 and the “MTT 24h, AVE (DMSO as 100)” value was 98.7342. The “MTT 24h … single replicate” value (1.56uM) was 96.4276 and 83.3373 and 92.051 and 113.855 and 70.8632, the “MTT 24h, 570-650nm, DMSO as 100, ave” value (1.56uM) was 91.3068 and the “MTT 24h … single replicate” value (3.125uM) was 90.7466 and 86.7485 and 103.011 and 110.013 and 65.2713. For the same compound, the “MTT 24h, 570-650nm, DMSO as 100, ave” value (3.125uM) was 91.158, the “MTT 24h … single replicate” value (6.25uM) was 105.57 and 88.5259 and 94.0239 and 117.378 and 78.8606 and the “MTT 24h, 570-650nm, DMSO as 100, ave” value (6.25uM) was 96.8717. The “MTT 24h … single replicate” value (12.5uM) was 102.53 and 101.147 and 92.3748 and 125.129 and 78.3815, the “MTT 24h, 570-650nm, DMSO as 100, ave” value (12.5uM) was 99.9126 and the “MTT 24h … single replicate” value (25uM) was 98.9543 and 93.1175 and 86.0556 and 130.26 and 81.3877. For the same compound, the “MTT 24h, 570-650nm, DMSO as 100, ave” value (25uM) was 97.9551, the “MTT 24h … single replicate” value (50uM) was 112.693 and 118.709 and 75.6574 and 146.7 and 98.6391 and the “MTT 24h, 570-650nm, DMSO as 100, ave” value (50uM) was 110.48. The “MTT 24h … single replicate” value (100uM) was 18.7526 and 22.4148 and 109.83 and 20.6307 and 19.4099, the “MTT 24h, 570-650nm, DMSO as 100, ave” value (100uM) was 38.2076 and the “570-650nm (MTT absorbance, single wells)” value (0.78uM) was 0.7522 and 1.0518 and 0.8482 and 0.7789 and 0.8023 and 0.8685. The “570-650nm (MTT absorbance, single wells)” value [1] was 0.6647 and 0.8265 and 0.8832 and 1.0096 and 1.017 and 1.0051, the “570-650nm ave” value (6.25uM) was 0.8727 and the “570-650nm (MTT absorbance, single wells)” value (6.25uM) was 0.8664 and 0.8077 and 0.726 and 1.0037 and 0.9599 and 0.9185. The “MTT absorbance with DMSO” value (6.25uM) was 118.085 and 106.14 and 146.74 and 140.336 and 126.667, the “570-650nm ave” value (12.5uM) was 0.8716 and the “570-650nm (MTT absorbance, single wells)” value (12.5uM) was 0.7966 and 0.8514 and 0.5539 and 1.0521 and 0.9774 and 0.9778. The “MTT absorbance with DMSO” value (12.5uM) was 69.5889 and 132.18 and 122.795 and 122.845 and 100.08, the “570-650nm ave” value (25uM) was 1.0477 and the “570-650nm (MTT absorbance, single wells)” value (25uM) was 0.9324 and 1.0073 and 0.9924 and 1.0024 and 1.1748 and 1.1365. For the same compound, the “MTT absorbance with DMSO” value (25uM) was 131.951 and 133.28 and 156.203 and 151.11 and 123.973, the “570-650nm ave” value (50uM) was 1.057 and the “570-650nm (MTT absorbance, single wells)” value (50uM) was 1.0423 and 1.105 and 0.762 and 0.9117 and 1.3276 and 1.24. The “MTT absorbance with DMSO” value (50uM) was 83.4959 and 99.8992 and 145.471 and 135.873 and 114.21 and the “570-650nm ave” value (100uM) was 0.7247.
